{"source": "patent US5543312A", "about": "“Pastuerella haemolytica glycoprotease gene and the purified enzyme” (priority 1991, dated 1996)", "key": {"[1]": {"target": "P. haemolytica A1 glycoprotease (Mannheimia haemolytica, UniProt P36175)", "sequence (P36175 whole entry)": "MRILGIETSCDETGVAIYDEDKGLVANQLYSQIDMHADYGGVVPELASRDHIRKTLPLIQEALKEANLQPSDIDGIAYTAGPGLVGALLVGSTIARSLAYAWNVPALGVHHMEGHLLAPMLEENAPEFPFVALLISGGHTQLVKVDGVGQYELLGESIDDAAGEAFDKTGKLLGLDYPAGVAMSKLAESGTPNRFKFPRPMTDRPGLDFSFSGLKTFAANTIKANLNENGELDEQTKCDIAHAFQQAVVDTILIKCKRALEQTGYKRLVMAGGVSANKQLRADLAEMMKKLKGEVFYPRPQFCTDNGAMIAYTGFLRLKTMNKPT", "assay": "biochemical", "conditions": "for Restoration of protease activity by addition of divalent metal ion: after EDTA treatment and dialysis of the enzyme; for Increase of activity by addition of divalent metal ion: native enzyme; for Inhibition of the glycoprotease by anions and acidic amino acids: millimolar concentrations"}, "[2]": {"test_system": "P. haemolytica glycoprotease", "assay": "Cleavage of cell surface antigens of surface-125I-iodinated KG1a cells, immunoprecipitation and SDS-PAGE", "type": "cell-based", "source_text": "In our previous work, we have concentrated on the cleavage of human erythrocyte glycophorin A by the P. haemolytica glycoprotease Udoh et al. 1986. Univ. of Guelph; Abdullah et al. 1988. Proc. Canad. Fed. Biol. Socs.; Abdullah et al. 1990. Biochem. Soc. Trans. This substrate is well-characterized erythrocyte surface O-sialoglycoprotein and is readily available for biochemical analysis. However, it is clear that the physiological targets of this enzyme are not erthrocyte antigens but are probably O-sialoglycoproteins on the surfaces of leukocytes or endothelial cells. SDS-PAGE analysis of immunoprecipitations performed with specific monoclonal antibodies on lysates of surface-^125 I-iodinated KG1a cells, a primitive myeloid/T-lymphois stem cell line Koeffler et al. 1977. Science 200, have shown that the O-sialoglycoprotein cell surface antigens CD34 Civin et al. 1989. Leucocyte Typing IV, Oxford Univ. Press. CD43/leucosialin Killeen et al. 1987. EMBO J.; Pallant et al. 1989. PNAS, CD44/lyaluronic acid receptor Stamenkovic et al. 1989. Cell; Aruffo et al. 1990. Cell and CD45/leucocyte common antigen Thomas et al. 1989. Annu. REv. Immunol.; Pulido et al. 1989. J. Immunol. are all cleaved by the glycoprotease. Although the glycoprotease-sensitive structures contain some N-linked glycans they are all extensively glycosylated with O-linked carbohydrates. […]"}, "[3]": {"target": "P. haemolytica A1 protease (Mannheimia haemolytica, UniProt P36175)", "sequence (P36175 whole entry, looked up)": "as the sequence (P36175 whole entry) above", "type": "biochemical", "conditions": "SDS-PAGE and Coomassie blue staining"}, "[4]": {"conditions": "pH 7.4, read-out: Activity (% of enzyme activity in the absence of any inhibitor)"}}}
{"molecule": "[Zn+2]", "note": "[Zn^2+]", "values": [{"measurement": "Restoration of protease activity by addition of divalent metal ion", "setting": "[1]", "result": "failed to restore"}, {"measurement": "Increase of activity by addition of divalent metal ion", "setting": "[1]", "result": "failed to increase"}]}
{"molecule": "[Fe+2]", "note": "[Fe^2+]", "values": [{"measurement": "Restoration of protease activity by addition of divalent metal ion", "setting": "[1]", "result": "failed to restore"}, {"measurement": "Increase of activity by addition of divalent metal ion", "setting": "[1]", "result": "failed to increase"}]}
{"molecule": "O=C(O)c1cc[c]([Hg+])cc1.[OH-]", "note": "[p-hydroxymercuribenzoate]", "values": [{"measurement": "Inhibition of glycoprotease by conventional protease inhibitors", "setting": "[1]", "result": "No inhibition"}]}
{"molecule": "CCN1C(=O)C=CC1=O", "note": "[N-ethylmaleimide]", "values": [{"measurement": "Inhibition of glycoprotease by conventional protease inhibitors", "setting": "[1]", "result": "No inhibition"}]}
{"molecule": "CD44/lyaluronic acid receptor: O-sialoglycoprotein cell surface antigen, hyaluronate receptor", "values": [{"measurement": "Cleavage of cell surface antigen by the glycoprotease", "setting": "[2]", "result": "cleaved"}]}
{"molecule": "bovine insulin chain A", "values": [{"measurement": "Hydrolysis of protein by active enzyme fractions", "setting": "[3]", "result": "did not hydrolyze"}]}
{"molecule": "CD71/transferrin receptor: N-linked glycoprotein which lacks O-sialo-residues", "values": [{"measurement": "Cleavage of cell surface antigen by the glycoprotease", "setting": "[2]", "result": "resistant"}]}
{"molecule": "[Ca+2]", "note": "[Ca^2+]", "values": [{"measurement": "Restoration of protease activity by addition of divalent metal ion", "setting": "[1]", "result": "failed to restore"}, {"measurement": "Increase of activity by addition of divalent metal ion", "setting": "[1]", "result": "failed to increase"}]}
{"molecule": "CC(C)C[C@H](NP(=O)(O)O[C@H]1O[C@@H](C)[C@H](O)[C@@H](O)[C@H]1O)C(=O)N[C@@H](Cc1c[nH]c2ccccc12)C(=O)O", "note": "[Phosphoramidon, N-(β-L-rhamnopyranosyl-oxyhydroxyphosphinyl)-L-leucyl-L-tryptophan]", "values": [{"measurement": "Inhibition of the glycoprotease (in words)", "setting": "[1]; concentration not given", "result": "without significant effect"}, {"measurement": "inhibition at 900 µM", "setting": "[1]; [4]", "result": 95, "unit": "%"}]}
{"molecule": "insulin chain B", "values": [{"measurement": "Hydrolysis of protein by active enzyme fractions", "setting": "[3]", "result": "did not hydrolyze"}]}
{"molecule": "cytochrome c", "values": [{"measurement": "Hydrolysis of protein by active enzyme fractions", "setting": "[3]", "result": "did not hydrolyze"}]}
{"molecule": "Cc1ccc(S(=O)(=O)NC(Cc2ccccc2)C(=O)CCl)cc1", "note": "(stereo not shown) [tosylphenylalanyl chloromethylketone]", "values": [{"measurement": "Inhibition of glycoprotease by conventional protease inhibitors", "setting": "[1]", "result": "No inhibition"}]}
{"molecule": "O=S(=O)(F)Cc1ccccc1", "note": "[phenylmethanesulfonyl-fluoride]", "values": [{"measurement": "Inhibition of glycoprotease by conventional protease inhibitors", "setting": "[1]", "result": "No inhibition"}]}
{"molecule": "N[C@@H](CC(=O)O)C(=O)O", "note": "[aspartate]", "values": [{"measurement": "Inhibition of the glycoprotease by anions and acidic amino acids", "setting": "[1]", "result": "Some inhibitions"}]}
{"molecule": "N[C@@H](CCC(=O)O)C(=O)O", "note": "[glutamate]", "values": [{"measurement": "Inhibition of the glycoprotease by anions and acidic amino acids", "setting": "[1]", "result": "Some inhibitions"}]}
{"molecule": "[Mg+2]", "note": "[Mg^2+]", "values": [{"measurement": "Restoration of protease activity by addition of divalent metal ion", "setting": "[1]", "result": "failed to restore"}, {"measurement": "Increase of activity by addition of divalent metal ion", "setting": "[1]", "result": "failed to increase"}]}
{"molecule": "O=C(O)c1cc[c]([Hg][Cl])cc1", "note": "[p-chloromercuribenzoate]", "values": [{"measurement": "Inhibition of glycoprotease by conventional protease inhibitors", "setting": "[1]", "result": "No inhibition"}]}
{"molecule": "Cc1ccc(S(=O)(=O)NC(CCCCN)C(=O)CCl)cc1", "note": "(stereo not shown) [tosyl-lysl chloromethylketone]", "values": [{"measurement": "Inhibition of glycoprotease by conventional protease inhibitors", "setting": "[1]", "result": "No inhibition"}]}
{"molecule": "O=C1O[C@H]([C@@H](O)CO)C(O)=C1O", "note": "[Ascorbate]", "values": [{"measurement": "inhibition at 11400 µM", "setting": "[1]; [4]", "result": 60, "unit": "%"}]}
{"molecule": "c1cnc2c(c1)ccc1cccnc12", "note": "[1,10-phenanthroline]", "values": [{"measurement": "Inhibition of the protease by prolonged treatment", "setting": "[1]; prolonged treatment (24 h)", "result": "inhibited"}]}
